According to patent US20140357713A1, “ANTIMICROBIAL COMPOUNDS AND METHODS OF USE” (NexMed Holdings, Inc., priority 2012, published 2014):

Experiments:
Assay in all cases: Extended time kill study, Example 34 (0 to 24 h)
Format in all cases: cell-based
Escherichia coli = system: Escherichia coli
Procedure: (§1) Time kill studies. Strain suspensions were prepared as described above for the MIC test, and strain suspensions and compound solutions were mixed in the same volume. Samples were removed at specified times including 0 min, 30 sec, 1 min and 5 mins, were diluted in the test medium and streaked on agar. Colonies were counted after 24 to 48 hrs of incubation.
(§2) The time kill studies of Example 33 were extended for five compounds (Nex-59, Nex-60, Nex-61, Nex-62, and Nex-88) using the same methods at longer time periods and at higher multiples of MIC. Nex-88 is a code number for DDAIP.HCl from a different supplier.

Pseudomonas aeruginosa = system: Pseudomonas aeruginosa
Procedure: as §1, §2

Aspergillus niger = system: Aspergillus niger
Procedure: as §1, §2

Candida albicans = system: Candida albicans
Procedure: as §1, §2

Staphylococcus aureus = system: Staphylococcus aureus
Procedure: as §1, §2

## CCCCCCCCCCCCOC(=O)C(C)NC(C)C.Cl (stereo not drawn) [Nex-60, Dodecyl 2-(isopropylamino)propanoate hydrochloride]
Escherichia coli; 1 × MIC, 1 h
  Viable counts, Escherichia coli time kill study: <1 Log10 CFU/mL
Escherichia coli; 1 × MIC, 2 h
  Viable counts, Escherichia coli time kill study: <1 Log10 CFU/mL
Escherichia coli; 1 × MIC, 4 h
  Viable counts, Escherichia coli time kill study: <1 Log10 CFU/mL
Escherichia coli; 1 × MIC, 6 h
  Viable counts, Escherichia coli time kill study: <1 Log10 CFU/mL
Escherichia coli; 1 × MIC, 24 h
  Viable counts, Escherichia coli time kill study: <1 Log10 CFU/mL
Escherichia coli; 1×MIC, time 0
  Viable counts, Escherichia coli time kill study: 5.02 Log10 CFU/mL
Escherichia coli; 2 × MIC, 1 h
  Viable counts, Escherichia coli time kill study: <1 Log10 CFU/mL
Escherichia coli; 2 × MIC, 2 h
  Viable counts, Escherichia coli time kill study: <1 Log10 CFU/mL
Escherichia coli; 2 × MIC, 4 h
  Viable counts, Escherichia coli time kill study: <1 Log10 CFU/mL
Escherichia coli; 2 × MIC, 6 h
  Viable counts, Escherichia coli time kill study: <1 Log10 CFU/mL
Escherichia coli; 2 × MIC, 24 h
  Viable counts, Escherichia coli time kill study: <1 Log10 CFU/mL
Escherichia coli; 2 × MIC, time 0
  Viable counts, Escherichia coli time kill study: 5.14 Log10 CFU/mL
Escherichia coli; 4 × MIC, 1 h
  Viable counts, Escherichia coli time kill study: <1 Log10 CFU/mL
Escherichia coli; 4 × MIC, 2 h
  Viable counts, Escherichia coli time kill study: <1 Log10 CFU/mL
Escherichia coli; 4 × MIC, 4 h
  Viable counts, Escherichia coli time kill study: <1 Log10 CFU/mL
Escherichia coli; 4 × MIC, 6 h
  Viable counts, Escherichia coli time kill study: <1 Log10 CFU/mL
Escherichia coli; 4 × MIC, 24 h
  Viable counts, Escherichia coli time kill study: <1 Log10 CFU/mL
Escherichia coli; 4 × MIC, time 0
  Viable counts, Escherichia coli time kill study: 5.07 Log10 CFU/mL
Pseudomonas aeruginosa; 1 × MIC, 1 h
  Viable counts, Pseudomonas aeruginosa time kill study: <1 Log10 CFU/mL
Pseudomonas aeruginosa; 1 × MIC, 2 h
  Viable counts, Pseudomonas aeruginosa time kill study: <1 Log10 CFU/mL
Pseudomonas aeruginosa; 1 × MIC, 4 h
  Viable counts, Pseudomonas aeruginosa time kill study: <1 Log10 CFU/mL
Pseudomonas aeruginosa; 1 × MIC, 6 h
  Viable counts, Pseudomonas aeruginosa time kill study: <1 Log10 CFU/mL
Pseudomonas aeruginosa; 1 × MIC, 24 h
  Viable counts, Pseudomonas aeruginosa time kill study: <1 Log10 CFU/mL
Pseudomonas aeruginosa; 1×MIC, time 0
  Viable counts, Pseudomonas aeruginosa time kill study: 5.30 Log10 CFU/mL
Pseudomonas aeruginosa; 2 × MIC, 1 h
  Viable counts, Pseudomonas aeruginosa time kill study: <1 Log10 CFU/mL
Pseudomonas aeruginosa; 2 × MIC, 2 h
  Viable counts, Pseudomonas aeruginosa time kill study: <1 Log10 CFU/mL
Pseudomonas aeruginosa; 2 × MIC, 4 h
  Viable counts, Pseudomonas aeruginosa time kill study: <1 Log10 CFU/mL
Pseudomonas aeruginosa; 2 × MIC, 6 h
  Viable counts, Pseudomonas aeruginosa time kill study: <1 Log10 CFU/mL
Pseudomonas aeruginosa; 2 × MIC, 24 h
  Viable counts, Pseudomonas aeruginosa time kill study: <1 Log10 CFU/mL
Pseudomonas aeruginosa; 2 × MIC, time 0
  Viable counts, Pseudomonas aeruginosa time kill study: 5.28 Log10 CFU/mL
Pseudomonas aeruginosa; 4 × MIC, 1 h
  Viable counts, Pseudomonas aeruginosa time kill study: <1 Log10 CFU/mL
Pseudomonas aeruginosa; 4 × MIC, 2 h
  Viable counts, Pseudomonas aeruginosa time kill study: <1 Log10 CFU/mL
Pseudomonas aeruginosa; 4 × MIC, 4 h
  Viable counts, Pseudomonas aeruginosa time kill study: <1 Log10 CFU/mL
Pseudomonas aeruginosa; 4 × MIC, 6 h
  Viable counts, Pseudomonas aeruginosa time kill study: <1 Log10 CFU/mL
Pseudomonas aeruginosa; 4 × MIC, 24 h
  Viable counts, Pseudomonas aeruginosa time kill study: <1 Log10 CFU/mL
Pseudomonas aeruginosa; 4 × MIC, time 0
  Viable counts, Pseudomonas aeruginosa time kill study: 5.31 Log10 CFU/mL
Aspergillus niger; 1 × MIC, 1 h
  Viable counts in Log10 CFU/mL: 4.60 Log10 CFU/mL
Aspergillus niger; 1 × MIC, 2 h
  Viable counts in Log10 CFU/mL: 4.78 Log10 CFU/mL
Aspergillus niger; 1 × MIC, 4 h
  Viable counts in Log10 CFU/mL: 4.60 Log10 CFU/mL
Aspergillus niger; 1 × MIC, 6 h
  Viable counts in Log10 CFU/mL: 4.30 Log10 CFU/mL
Aspergillus niger; 1 × MIC, 24 h
  Viable counts in Log10 CFU/mL: 3.81 Log10 CFU/mL
Aspergillus niger; 1 × MIC, 0 h
  Viable counts in Log10 CFU/mL: 5.52 Log10 CFU/mL
Aspergillus niger; 2 × MIC, 1 h
  Viable counts in Log10 CFU/mL: 4.30 Log10 CFU/mL
Aspergillus niger; 2 × MIC, 2 h
  Viable counts in Log10 CFU/mL: 4.78 Log10 CFU/mL
Aspergillus niger; 2 × MIC, 4 h
  Viable counts in Log10 CFU/mL: 3.85 Log10 CFU/mL
Aspergillus niger; 2 × MIC, 6 h
  Viable counts in Log10 CFU/mL: 3.78 Log10 CFU/mL
Aspergillus niger; 2 × MIC, 24 h
  Viable counts in Log10 CFU/mL: 4.30 Log10 CFU/mL
Aspergillus niger; 2 × MIC, 0 h
  Viable counts in Log10 CFU/mL: 5.47 Log10 CFU/mL
Aspergillus niger; 4 × MIC, 1 h
  Viable counts in Log10 CFU/mL: 4.00 Log10 CFU/mL
Aspergillus niger; 4 × MIC, 2 h
  Viable counts in Log10 CFU/mL: 4.48 Log10 CFU/mL
Aspergillus niger; 4 × MIC, 4 h
  Viable counts in Log10 CFU/mL: 3.60 Log10 CFU/mL
Aspergillus niger; 4 × MIC, 6 h
  Viable counts in Log10 CFU/mL: 3 Log10 CFU/mL
Aspergillus niger; 4 × MIC, 24 h
  Viable counts in Log10 CFU/mL: <2 Log10 CFU/mL
Aspergillus niger; 4 × MIC, 0 h
  Viable counts in Log10 CFU/mL: 5.60 Log10 CFU/mL
Candida albicans; 1 × MIC, 1 h
  Viable counts in Log10 CFU/mL: 5.51 Log10 CFU/mL
Candida albicans; 1 × MIC, 2 h
  Viable counts in Log10 CFU/mL: 5.50 Log10 CFU/mL
Candida albicans; 1 × MIC, 4 h
  Viable counts in Log10 CFU/mL: 5.18 Log10 CFU/mL
Candida albicans; 1 × MIC, 6 h
  Viable counts in Log10 CFU/mL: 5.09 Log10 CFU/mL
Candida albicans; 1 × MIC, 24 h
  Viable counts in Log10 CFU/mL: >6 Log10 CFU/mL
Candida albicans; 1 × MIC, 0 h
  Viable counts in Log10 CFU/mL: 5.56 Log10 CFU/mL
Candida albicans; 2 × MIC, 1 h
  Viable counts in Log10 CFU/mL: 3.30 Log10 CFU/mL
Candida albicans; 2 × MIC, 2 h
  Viable counts in Log10 CFU/mL: 3.00 Log10 CFU/mL
Candida albicans; 2 × MIC, 4 h
  Viable counts in Log10 CFU/mL: 3.00 Log10 CFU/mL
Candida albicans; 2 × MIC, 6 h
  Viable counts in Log10 CFU/mL: <2.70 Log10 CFU/mL
Candida albicans; 2 × MIC, 24 h
  Viable counts in Log10 CFU/mL: <1 Log10 CFU/mL
Candida albicans; 2 × MIC, 0 h
  Viable counts in Log10 CFU/mL: 5.51 Log10 CFU/mL
Candida albicans; 4 × MIC, 1 h
  Viable counts in Log10 CFU/mL: 3.78 Log10 CFU/mL
Candida albicans; 4 × MIC, 2 h
  Viable counts in Log10 CFU/mL: 3.30 Log10 CFU/mL
Candida albicans; 4 × MIC, 4 h
  Viable counts in Log10 CFU/mL: 3.00 Log10 CFU/mL
Candida albicans; 4 × MIC, 6 h
  Viable counts in Log10 CFU/mL: <2.70 Log10 CFU/mL
Candida albicans; 4 × MIC, 24 h
  Viable counts in Log10 CFU/mL: <1 Log10 CFU/mL
Candida albicans; 4 × MIC, 0 h
  Viable counts in Log10 CFU/mL: 5.62 Log10 CFU/mL
Staphylococcus aureus; 1 × MIC, 1 h
  Viable counts, Staphylococcus aureus time kill study: 6.23 Log10 CFU/mL
Staphylococcus aureus; 1 × MIC, 2 h
  Viable counts, Staphylococcus aureus time kill study: 6.24 Log10 CFU/mL
Staphylococcus aureus; 1 × MIC, 4 h
  Viable counts, Staphylococcus aureus time kill study: 6.16 Log10 CFU/mL
Staphylococcus aureus; 1 × MIC, 6 h
  Viable counts, Staphylococcus aureus time kill study: 5.97 Log10 CFU/mL
Staphylococcus aureus; 1 × MIC, 24 h
  Viable counts, Staphylococcus aureus time kill study: 6.57 Log10 CFU/mL
Staphylococcus aureus; 1×MIC, time 0
  Viable counts, Staphylococcus aureus time kill study: 6.22 Log10 CFU/mL
Staphylococcus aureus; 2 × MIC, 1 h
  Viable counts, Staphylococcus aureus time kill study: <3 Log10 CFU/mL
Staphylococcus aureus; 2 × MIC, 2 h
  Viable counts, Staphylococcus aureus time kill study: <3 Log10 CFU/mL
Staphylococcus aureus; 2 × MIC, 4 h
  Viable counts, Staphylococcus aureus time kill study: <3 Log10 CFU/mL
Staphylococcus aureus; 2 × MIC, 6 h
  Viable counts, Staphylococcus aureus time kill study: <3 Log10 CFU/mL
Staphylococcus aureus; 2 × MIC, 24 h
  Viable counts, Staphylococcus aureus time kill study: <1 Log10 CFU/mL
Staphylococcus aureus; 2 × MIC, time 0
  Viable counts, Staphylococcus aureus time kill study: 6.20 Log10 CFU/mL
Staphylococcus aureus; 4 × MIC, 1 h
  Viable counts, Staphylococcus aureus time kill study: <3 Log10 CFU/mL
Staphylococcus aureus; 4 × MIC, 2 h
  Viable counts, Staphylococcus aureus time kill study: <3 Log10 CFU/mL
Staphylococcus aureus; 4 × MIC, 4 h
  Viable counts, Staphylococcus aureus time kill study: <3 Log10 CFU/mL
Staphylococcus aureus; 4 × MIC, 6 h
  Viable counts, Staphylococcus aureus time kill study: <3 Log10 CFU/mL
Staphylococcus aureus; 4 × MIC, 24 h
  Viable counts, Staphylococcus aureus time kill study: <1 Log10 CFU/mL
Staphylococcus aureus; 4 × MIC, time 0
  Viable counts, Staphylococcus aureus time kill study: 6.21 Log10 CFU/mL
